Assay results published in PMC11876601 (Molecular Systems Biology, 2025).
Read-outs that look alike come from different tables or passages of the source.

Experiments:
Test in all cases: cells
FAMPAC [1] = test system: FAMPAC; set-up: Viability of PDAC cell lines, ATPlite luminescence, 11-dose single-agent curve fit; conditions: 72 h, read-out: EC50 [nM]
Method in brief: (§1)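 cells (1000 to 5000 per well) seeded 24 h before drug addition in a screen at 0.2% final DMSO. Controls were drug-free wells (negative) and 5 µM staurosporine (positive).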

PANC-1 = test system: PANC-1; set-up: Viability of PDAC cell lines, ATPlite luminescence, 11-dose single-agent curve fit; conditions: Homo sapiens, PANC-1, 72 h, read-out: EC50 [nM]
Method in brief: as §1

HuP-T4 = test system: HuP-T4; set-up: Viability of PDAC cell lines, ATPlite luminescence, 11-dose single-agent curve fit; conditions: Homo sapiens, HuP-T4, 72 h, read-out: EC50 [nM]
Method in brief: as §1

AsPC-1 [2] = test system: AsPC-1; set-up: Viability of PDAC cell lines, ATPlite luminescence, 11-dose single-agent curve fit; conditions: Homo sapiens, ASPC1, 72 h, read-out: EC50 [nM]
Method in brief: as §1

Capan-1 = test system: Capan-1; set-up: Viability of PDAC cell lines, ATPlite luminescence, 11-dose single-agent curve fit; conditions: Homo sapiens, CAPAN-1, 72 h, read-out: EC50 [nM]
Method in brief: as §1

BxPC-3 [3] = test system: BxPC-3; set-up: Viability of PDAC cell lines, ATPlite luminescence, 11-dose single-agent curve fit; conditions: Homo sapiens, BXPC-3, 72 h, read-out: EC50 [nM]
Method in brief: as §1

HPDE = test system: HPDE; set-up: Viability of PDAC cell lines, ATPlite luminescence, 11-dose single-agent curve fit; conditions: HPDE, 72 h, read-out: EC50 [nM]
Method in brief: as §1

Suit2-07 [4] = test system: Suit2-07; set-up: ATPlite luminescence viability of PDAC cell lines, 11-dose single-agent curves, 4-parameter fit; conditions: 72 h, read-out: EC50 [nM]
Method in brief: (§2)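 cells (1000 to 5000 per well) seeded 24 h before drug addition in a combination screen at 0.2% final DMSO. Controls were drug-free wells (negative) and 5 µM staurosporine (positive).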

Dan-G [5] = test system: Dan-G; set-up: ATPlite luminescence viability of PDAC cell lines, 11-dose single-agent curves, 4-parameter fit; conditions: 72 h, read-out: EC50 [nM]
Method in brief: as §2

MiaPaCa-2 [6] = test system: MiaPaCa-2; set-up: ATPlite luminescence viability of PDAC cell lines, 11-dose single-agent curves, 4-parameter fit; conditions: Homo sapiens, MIA PaCa-2, 72 h, read-out: EC50 [nM]
Method in brief: as §2

Colo-357 [7] = test system: Colo-357; set-up: ATPlite luminescence viability of PDAC cell lines, 11-dose single-agent curves, 4-parameter fit; conditions: Homo sapiens, COLO357, 72 h, read-out: EC50 [nM]
Method in brief: as §2

PSN-1 [8] = test system: PSN-1; set-up: ATPlite luminescence viability of PDAC cell lines, 11-dose single-agent curves, 4-parameter fit; conditions: Homo sapiens, PSN1, 72 h, read-out: EC50 [nM]
Method in brief: as §2

PaTu-8988-T [9] = test system: PaTu-8988-T; set-up: ATPlite luminescence viability of PDAC cell lines, 11-dose single-agent curves, 4-parameter fit; conditions: Homo sapiens, PaTu 8988t, 72 h, read-out: EC50 [nM]
Method in brief: as §2

FAMPAC [10] = test system: FAMPAC; set-up: ATPlite luminescence viability of PDAC cell lines, 11-dose single-agent curves, 4-parameter fit; conditions: 72 h, read-out: EC50 [nM]
Method in brief: as §2

BxPC-3 [11] = test system: BxPC-3; set-up: ATPlite luminescence viability of PDAC cell lines, 11-dose single-agent curves, 4-parameter fit; conditions: Homo sapiens, BXPC-3, 72 h, read-out: EC50 [nM]
Method in brief: as §2

PaTu-8988-T [12] = test system: PaTu-8988-T; set-up: Viability of PDAC cell lines, ATPlite luminescence, 11-dose single-agent curve fit; conditions: Homo sapiens, PaTu 8988t, 72 h, read-out: EC50 [nM]
Method in brief: as §1

AsPC-1 [13] = test system: AsPC-1; set-up: ATPlite luminescence viability of PDAC cell lines, 11-dose single-agent curves, 4-parameter fit; conditions: Homo sapiens, ASPC1, 72 h, read-out: EC50 [nM]
Method in brief: as §2

MiaPaCa-2 [14] = test system: MiaPaCa-2; set-up: Viability of PDAC cell lines, ATPlite luminescence, 11-dose single-agent curve fit; conditions: Homo sapiens, MIA PaCa-2, 72 h, read-out: EC50 [nM]
Method in brief: as §1

PSN-1 [15] = test system: PSN-1; set-up: Viability of PDAC cell lines, ATPlite luminescence, 11-dose single-agent curve fit; conditions: Homo sapiens, PSN1, 72 h, read-out: EC50 [nM]
Method in brief: as §1

Dan-G [16] = test system: Dan-G; set-up: Viability of PDAC cell lines, ATPlite luminescence, 11-dose single-agent curve fit; conditions: 72 h, read-out: EC50 [nM]
Method in brief: as §1

Colo-357 [17] = test system: Colo-357; set-up: Viability of PDAC cell lines, ATPlite luminescence, 11-dose single-agent curve fit; conditions: Homo sapiens, COLO357, 72 h, read-out: EC50 [nM]
Method in brief: as §1

Suit2-07 [18] = test system: Suit2-07; set-up: Viability of PDAC cell lines, ATPlite luminescence, 11-dose single-agent curve fit; conditions: 72 h, read-out: EC50 [nM]
Method in brief: as §1

| Structure (SMILES) | EC50 (FAMPAC [1]) | EC50 (PANC-1) | EC50 (HuP-T4) | EC50 (Capan-1) | EC50 (HPDE) | EC50 (Suit2-07 [4]) | EC50 (Dan-G [5]) | EC50 (MiaPaCa-2 [6]) | EC50 (Colo-357 [7]) | EC50 (PSN-1 [8]) | EC50 (PaTu-8988-T [9]) | EC50 (FAMPAC [10]) | EC50 (BxPC-3 [11]) | EC50 (PaTu-8988-T [12]) | EC50 (AsPC-1 [13]) | EC50 (Dan-G [16]) | EC50 (Colo-357 [17]) | also measured |
| --- | --- | --- | --- | --- | --- | --- | --- | --- | --- | --- | --- | --- | --- | --- | --- | --- | --- | --- |
| CC(=O)c1c(C)c2cnc(Nc3ccc(N4CCNCC4)cn3)nc2n(C2CCCC2)c1=O [Palbociclib] | 1390 nM | > 10000 nM | 0.1 nM | 5070 nM | > 10000 nM | > 10000 nM | 8540 nM | > 10000 nM | 5610 nM | > 10000 nM | > 10000 nM | – | – | – | – | – | – | EC50 (AsPC-1 [2]): 4830 nM; EC50 (BxPC-3 [3]): 2930 nM |
| CO[C@]1(C(=O)N[C@@H](C)c2ccc(-n3cc(F)cn3)nc2)CC[C@H](c2nc(C)cc(Nc3cc(C)[nH]n3)n2)CC1 [Pralsetinib] | – | 1860 nM | 4550 nM | > 10000 nM | 4600 nM | > 10000 nM | 6680 nM | 773 nM | 6960 nM | 5870 nM | 6490 nM | 5210 nM | 2910 nM | – | – | – | – | EC50 (AsPC-1 [2]): 1820 nM |
| COC(=O)N[C@@H](C)CNc1nccc(-c2cn(C(C)C)nc2-c2cc(Cl)cc(NS(C)(=O)=O)c2F)n1 [Encorafenib] | – | 6620 nM | – | 453 nM | 1140 nM | 1790 nM | 620 nM | 1290 nM | 1020 nM | 800 nM | – | 943 nM | 296 nM | 1220 nM | 3210 nM | – | – | – |
| CC(C)NC[C@@H](C(=O)N1CCN(c2ncnc3c2[C@H](C)C[C@H]3O)CC1)c1ccc(Cl)cc1 [Ipatasertib] | 642 nM | > 10000 nM | 310 nM | 4690 nM | 5290 nM | 3240 nM | 1150 nM | – | 151 nM | – | – | – | – | 543 nM | – | – | – | EC50 (AsPC-1 [2]): 154 nM; EC50 (MiaPaCa-2 [14]): 3940 nM; EC50 (BxPC-3 [3]): 246 nM; EC50 (PSN-1 [15]): 7080 nM |
| COc1cc(CCc2cc(NC(=O)c3ccc(N4C[C@@H](C)N[C@@H](C)C4)cc3)n[nH]2)cc(OC)c1 [AZD4547] | > 10000 nM | 5350 nM | 9460 nM | 0.79 nM | 5300 nM | 9040 nM | – | > 10000 nM | – | 8650 nM | – | – | 6320 nM | 7380 nM | > 10000 nM | 0.1 nM | 1080 nM | – |
| COC(=O)c1ccc2c(c1)NC(=O)/C2=C(\Nc1ccc(N(C)C(=O)CN2CCN(C)CC2)cc1)c1ccccc1 [Nintedanib] | – | 77.7 nM | 146 nM | 10200 nM | 1550 nM | > 10000 nM | 6960 nM | 1030 nM | – | 8030 nM | 6690 nM | > 10000 nM | 4940 nM | – | > 10000 nM | – | 9780 nM | – |
| Cc1nc(NC(=O)N2CCC[C@H]2C(N)=O)sc1-c1ccnc(C(C)(C)C(F)(F)F)c1 [Alpelisib] | 3750 nM | > 10000 nM | 21.8 nM | 5110 nM | 7680 nM | – | 661 nM | 1400 nM | 355 nM | – | 3930 nM | – | 1640 nM | – | 3740 nM | – | – | EC50 (Suit2-07 [18]): 2060 nM; EC50 (PSN-1 [15]): 269 nM |
| Cn1cnc2c(F)c(Nc3ccc(Br)cc3Cl)c(C(=O)NOCCO)cc21 [Selumetinib] | – | 87.4 nM | 276 nM | 4670 nM | 268 nM | – | – | 24.1 nM | – | 229 nM | – | 8370 nM | 1360 nM | 94.7 nM | 59.5 nM | 1490 nM | 22.3 nM | EC50 (Suit2-07 [18]): 451 nM |
| CC(C)N1CCN(Cc2cnc(-c3cc(-c4cccc5[nH]ccc45)cc4[nH]ncc34)o2)CC1 [Nemiralisib] | > 10000 nM | > 10000 nM | 3260 nM | 10.5 nM | 7360 nM | > 10000 nM | – | > 10000 nM | – | – | – | – | 4420 nM | 811 nM | > 10000 nM | 5040 nM | 3010 nM | EC50 (PSN-1 [15]): 5830 nM |
| COCc1c(-c2cc3cc(C)cc(OC)c3s2)c2c(N)ncnn2c1CN1CCNC(=O)C1 [Rogaratinib] | – | 3980 nM | 24.2 nM | 5610 nM | 7330 nM | > 10000 nM | 3460 nM | 2050 nM | – | 3270 nM | 3870 nM | 3300 nM | 4270 nM | – | 3450 nM | – | 3150 nM | – |
| Cn1cnc2c(F)c(Nc3ccc(Br)cc3F)c(C(=O)NOCCO)cc21 [Binimetinib] | – | 350 nM | 176 nM | 401 nM | 222 nM | – | – | 10.7 nM | – | 71.8 nM | – | 2430 nM | 381 nM | 155 nM | 83.9 nM | 504 nM | 58.4 nM | EC50 (Suit2-07 [18]): 112 nM |
